According to patent US20100286262A1, “PTGS2 HAPLOTYPES” (priority 2007, published 2010):

Assays:
[1] = tested on: colorectal cancer patients (stage II/III) after potentially curative therapy; test: VICTOR trial: disease-free survival and recurrence; format: in vivo, human
Experimental: (§1) This was a phase III randomised, placebo-controlled double-blind trial of R in patients after potentially-curative surgery and completion of adjuvant therapy for stage II/III CRC. 7000 patients were planned to receive 25 mg R daily or an identical placebo (P) for 2 or 5 years, however the trial was terminated early after the worldwide withdrawal of R. A revised protocol and statistical analysis plan permitted detection of a reduction (HR=0.75) in risk of death with 87% power, with one pre-planned event-driven interim analysis.
Patients were randomly assigned to receive R or P at 151 hospitals in the United Kingdom. Inclusion criteria included: histologically proven stage II and III colorectal carcinoma in patients who had undergone complete resection of the primary tumour; WHO Performance Status 0 or 1; haematological, liver and renal function within the normal range. All patients had completed potentially curative therapy (surgery+/−radiotherapy+/−chemotherapy) 12 or fewer weeks previously and had given written informed consent. Patients with active peptic ulceration or gastrointestinal bleeding in the past year, a history of adverse reactions to NSAIDs, or a known sensitivity to R were excluded, as were those receiving long-term NSAID therapy (except for low-dose aspirin, <100 mg per day), those younger than 18 years, and women who were pregnant, lactating, or premenopausal but not using contraception. Patients with a history of cancer (other than adequately treated in situ carcinoma of the cervix, basal or squamous-cell carcinoma), inflammatory bowel disease, or severe congestive heart failure were also excluded.
It was planned to randomly allocate R (one 25-mg tablet daily) or identical P to 7000 patients, with half of each group receiving the study drug for 2 or 5 years. Suitable patients were randomly assigned in a double blind fashion to R or P through the VICTOR Trial Office, which supplied drugs to participating hospitals every 6 months. Minimisation was used to balance allocations by stage (II, III), disease site (colon, rectum, recto-sigmoid), age (<50, 50-59, 60-69, 70+) prior adjuvant chemotherapy and radiotherapy.
(§2) Data-collection forms were amended to solicit baseline data on cardiovascular risk factors, for all patients After worldwide withdrawal of rofecoxib all investigators and patients were informed, study treatment was stopped, and follow-up continued, at 3, 6, 12, 18 and 24 months after randomisation and annually thereafter. Patients received a colonoscopy 1-2 years after primary surgery and 2- to 3-yearly thereafter; a CT scan about 1 year after surgery; clinical examination and routine blood tests at outpatient visits. All recurrences were confirmed by CT or MRI scan and patients were flagged for survival with the UK's Office of National Statistics. Adverse event data were recorded systematically throughout the study and were reviewed by the trials team (RM, DJK and MJL) to clarify diagnoses.
The original study was powered to detect a reduction in risk of death between treatments for stage II and stage III separately, (hazard ratio 0.80), with type I error 0.05. The modified statistical plan, after premature closure with 2434 patients, permitted detection of a reduction in risk of death of HR 0.75, 87% power, with type I error 0.05, and one interim analysis specified according to an O'Brien-Fleming alpha-spending rule when there were 350 events. The threshold for statistical significance for OS at this analysis is p<0.01325. OS, the primary endpoint, was measured from randomisation to death from any cause. Secondary endpoints include DFS, measured from randomisation to recurrence or death from any cause and recurrence-free survival, measured from randomisation to recurrence and/or colorectal cancer death. This is the report of the interim analysis, with 368 deaths. Kaplan-Meier curves and log-rank analysis were used for comparisons of OS and DFS. Subgroups were examined using HR plots. […]

[2] = tested on: colorectal cancer patients (stage II/III) after potentially curative therapy; test: VICTOR trial: safety (serious adverse events, early discontinuations), treated population; format: in vivo
Experimental: as §1, §2
The original study was powered to detect a reduction in risk of death between treatments for stage II and stage III separately, (hazard ratio 0.80), with type I error 0.05. The modified statistical plan, after premature closure with 2434 patients, permitted detection of a reduction in risk of death of HR 0.75, 87% power, with type I error 0.05, and one interim analysis specified according to an O'Brien-Fleming alpha-spending rule when there were 350 events. The threshold for statistical significance for OS at this analysis is p<0.01325. OS, the primary endpoint, was measured from randomisation to death from any cause. Secondary endpoints include DFS, measured from randomisation to recurrence or death from any cause and recurrence-free survival, measured from randomisation to recurrence and/or colorectal cancer death. This is the report of the interim analysis, with 368 deaths. Kaplan-Meier curves and log-rank analysis were used for comparisons of OS and DFS. Subgroups were examined using HR plots. Hazard ratios and their confidence intervals were calculated from log-rank statistics and variances. Cox's proportional hazards models were used to estimate the treatment effect adjusted by prognostic factors. All reported p-values are two-sided. For analysis of OS, patients not reported as dead were censored at their last known date alive. For analysis of DFS, patients who were alive and recurrence-free were censored at their last known recurrence-free date. For analysis of DFS in first year after randomisation, patients who were alive and recurrence-free at one year were censored at that time. Numbers of SAEs were compared using a normal approximation to the Poisson distribution.
Serious Adverse Events (SAEs) were collected for each patient from enrolment until the data lock of November 2007. Cardiovascular thrombotic events have previously been reported in detail. In summary, of 23 confirmed cardiovascular thrombotic events that occurred within the treatment period or within 14 days after cessation, 16 occurred in the R arm and 7 in the P arm with an estimated relative risk of 2.66 (95% confidence intervals (CI) 1.03-6.86; p=0.04). These included fatal and nonfatal myocardial infarction, unstable angina, sudden death from cardiac causes, fatal and nonfatal ischemic stroke, transient ischemic attack, peripheral arterial thrombosis, peripheral venous thrombosis, and pulmonary embolism. Fourteen more cardiovascular thrombotic events, six in the R arm and eight in the P arm, were reported within the two years after the trial closure, with an overall total period unadjusted relative risk of 1.50 (95% CI 0.76-2.94; p=0.24). […]

CS(=O)(=O)c1ccc(C2=C(c3ccccc3)C(=O)OC2)cc1 [rofecoxib, 3-phenyl-4-(4(methylsulfonyl)phenyl)-2-(5H)-furanone]
number of patients still at risk (disease free survival, data of FIG. 6) ([1]; 1 year from randomisation): 1031 | number of patients still at risk (disease free survival, data of FIG. 6) ([1]; 2 years from randomisation): 824 | number of patients still at risk (disease free survival, data of FIG. 6) ([1]; 3 years from randomisation): 449 | number of patients still at risk (disease free survival, data of FIG. 6) ([1]; 4 years from randomisation): 114 | number of patients still at risk (disease free survival, data of FIG. 6) ([1]; 5 years from randomisation): 7 | HR for death or recurrence adjusted for stage, age, radiotherapy group and gender ([1]; 95% CI 0.78, 1.07, p=0.30): 0.91 | HR for disease recurrence or death from any cause (DFS), R compared with P ([1]; 95% CI 0.78 to 1.07, P=0.25): 0.91 | 3-year DFS rate ([1]; 95% CI 72.0 to 77.3, P group 72.6%): 74.7% | Number of colorectal cancer recurrence events ([1]; 297 in P arm): 271 | Number of DFS events ([1]; 316 in P group): 291 | HR for colorectal cancer recurrence ([1]; R vs P, 95% CI 0.77-1.06, p=0.22): 0.90 | DFS events in the first year at risk from randomisation ([1]; non-prespecified analysis, vs 145 in P, p=0.07): 117 | Overall benefit in disease-free or overall survival (in words) ([1]; specified analyses): no overall benefit | Recurrences in year 2 ([1]; vs 88 in P arm): 99 | Recurrences in the first year ([1]; vs 141 in P arm, p=0.06): 112 | DFS events, year 2 onwards ([1]; vs 171 in P, p=0.97): 174 | Early discontinuation of study drug for hypertension (patients) ([2]; 1 in P): 7 | Early discontinuation of study drug for renal impairment (patients) ([2]; 1 in P): 7 | SAE: cardiac failure of unknown aetiology (patients) ([2]; 1 in P): 4 | SAE: stable angina (patients) ([2]; 2 in P): 5 | SAE: various infections (patients) ([2]; 3 in P, p=0.05): 10 | Early discontinuation of study drug for diarrhea (patients) ([2]; 4 in P): 4 | SAE: cardiac arrhythmias (patients) ([2]; 4 in P): 3 | Early discontinuation of study drug for gastrointestinal pain or heartburn (patients) ([2]; 5 in P): 15 | Early discontinuation of study drug for analgesia required for arthritis (patients) ([2]; 15 in P): 4 | Overall total period unadjusted relative risk of cardiovascular thrombotic events ([2]; 95% CI 0.76-2.94, p=0.24): 1.50 | Early discontinuation of study drug for heart failure (patients) ([2]; in vivo): 2 | Enhanced cardiovascular adverse event profile ([2]; in vivo): 1-2% | Other SAEs (depression, neuralgia, polymyositis, epilepsy), frequency ([2]; in vivo): less than 0.2% | SAE: hypertension (patients) ([2]; in vivo): 2 | Gastro-intestinal SAEs (indigestion/gastroduodenal ulceration, diarrhoea, constipation, obstruction), frequency in patients ([2]; no significant difference comparing R and P): less than 1% | All-cause SAEs (in words) ([2]; p=0.05): there was an association with R administration | Estimated relative risk of cardiovascular thrombotic events ([2]; treatment period or within 14 days after cessation, 95% CI 1.03-6.86, p=0.04): 2.66 | Confirmed cardiovascular thrombotic events ([2]; within the treatment period or within 14 days after cessation, 7 in P arm): 16 | Further cardiovascular thrombotic events ([2]; within the two years after the trial closure, eight in P arm): six
